In patent US12617762B2, “Carboxy derivatives with antiinflamatory properties” (Sitryx Therapeutics Limited, priority 2019, dated 2026):
Counter-ions that a name gives are not always drawn. Like-named read-outs stand apart in the source and are kept apart here.

How the values were obtained:
[1] = tested on: NRF2 (nuclear factor erythroid 2-related factor 2); experiment: NRF2 +/-GSH activation assay (DiscoverX PathHunter NRF2 translocation kit, U2OS cells); format: cell-based; conditions: for NRF2 activation +GSH Emax / NRF2 activation −GSH Emax: normalised to DMF high control
Procedure: Measuring Compound Activation Effects on the Anti-Inflammatory Transcription Factor NRF2 in DiscoverX PathHunter NRF2 Translocation Kit
Potency and efficacy of compounds of formula (I) against the target of interest to activate NRF2 (nuclear factor erythroid 2-related factor 2) were determined using the PathHunter NRF2 translocation kit (DiscoverX). The NRF2 translocation assay was run using an engineered recombinant cell line, utilising enzyme fragment complementation to determine activation of the Keap1-NRF2 protein complex and subsequent translocation of NRF2 into the nucleus. Enzyme activity was quantified using a chemiluminescent substrate consumed following the formation of a functional enzyme upon PK-tagged NRF2 translocation into the nucleus.
The assay was run under both +/−GSH (glutathione) conditions to determine the sensitivity of the compounds' NRF2-activating abilities to attenuation by GSH.
Additionally, a defined concentration of DMF was used as the ‘High’ control to normalise test compound activation responses to.
U2OS PathHunter eXpress cells were thawed from frozen prior to plating. Following plating, U2OS cells were incubated for 24 hrs (37° C./5% CO2) in commercial kit provided cell medium.
Following 24 hrs of U2OS incubation, cells were directly treated with an appropriate final concentration of compound, for −GSH conditions or, for +GSH conditions, an intermediate plate containing 6× working concentrations of compound stocks was prepared in a 6 mM working concentration of GSH solution (solubilised in sterile PBS). Following a 30 minute compound-GSH pre-incubation (37° C./5% CO2) for +GSH treatment, plated U2OS cells were incubated with an appropriate final concentration of compound and GSH.
Following compound (+/−GSH) treatment, the U2OS plates were incubated for a further 6 hours (37° C./5% CO2) before detection reagent from the PathHunter NRF2 commercial kit was prepared and added to test plates according to the manufacturer's instructions. Subsequently, the luminescence signal detection was measured in a microplate reader (PHERAstar®, BMG Labtech).
Percentage activation was calculated by normalising the sample data to the high and low controls used within each plate (+/−DMF).

[2] = tested on: IL-1β cytokine output from THP-1s; experiment: THP-1 AlphaLISA IL-1β cytokine inhibition assay; format: cell-based; conditions: for IC50: Homo sapiens, THP-1, differentiated THP-1 cells, LPS then nigericin; for IL-1β lowering, result in words: THP-1 IL-1β assay
Procedure: Measuring Inhibitory Effects on IL-1β Cytokine Output from THP-1s
The cytokine inhibition profiles of compounds of formula (I) were determined in a differentiated THP-1 cell assay. All assays were performed in RPMI-1640 growth medium (Gibco), supplemented with 10% fetal bovine serum (FBS; Gibco), 1% penicillin-streptomycin and 1% sodium pyruvate unless specified otherwise. The IL-1β cytokine inhibition assay was run in a background of differentiated THP-1 cells as described below. All reagents described were from Sigma-Aldrich unless specified otherwise. Compounds were prepared as 10 mM DMSO stocks.
THP-1 cells were expanded as a suspension up to 80% confluence in appropriate growth medium. Cells were harvested, suspended, and treated with an appropriate concentration of phorbol 12-myristate 13-acetate (PMA) over a 72 hr period (37° C./5% CO2).
Following 72 hrs of THP-1 cell incubation, cellular medium was removed and replaced with fresh growth media containing 1% of FBS. Working concentrations of compounds were prepared separately in 10% FBS treated growth medium and pre-incubated with the cells for 30 minutes (37° C./5% CO2). Following the 30 minute compound pre-incubation, THP-1s were treated with an appropriate concentration of LPS and the cells were subsequently incubated for a 24 hr period (37° C./5% CO2). An appropriate final concentration of Nigericin was then dispensed into the THP-1 plates and incubated for 1 hour (37° C./5% CO2) before THP-1 supernatants were harvested and collected in separate polypropylene 96-well holding plates.
Reagents from an IL-1β and IL-6 commercial kit (Perkin Elmer) were prepared and run according to the manufacturer's instructions. Subsequently, fluorescence signal detection in a microplate reader was measured (EnVision® Multilabel Reader, Perkin Elmer).
Percentage inhibition was calculated per cytokine by normalising the sample data to the high and low controls used within each plate (+/− LPS respectively).

[3] = +GSH, 30 minute compound-GSH pre-incubation, read-out: NRF2 activation +GSH EC50
[4] = −GSH, U2OS PathHunter cells, 6 hours compound treatment, read-out: NRF2 activation −GSH EC50

IC50 [2]	Compound	EC50 [1, 3]	NRF2 activation +GSH Emax ([1]; +GSH)	EC50 [1, 4]	NRF2 activation −GSH Emax ([1]; −GSH)	IL-1β lowering, result in words [2]
29.9 µM	C=C(Cc1nc(-c2ccc(N3CCCC3)cc2)no1)C(=O)O [Example 132, 2-((3-(4-(pyrrolidin-1-yl)phenyl)-1,2,4-oxadiazol-5-yl)methyl)acrylic acid]	–	–	–	–	–
> 100 µM	C=C(Cc1nc(C2(c3ccc([S+]([O-])C(F)(F)F)cc3)CC2)no1)C(=O)O (centres unmarked) [Example 157, 2-((3-(1-(4-((trifluoromethyl)sulfinyl)phenyl)cyclopropyl)-1,2,4-oxadiazol-5-yl)methyl)acrylic acid]	> 100 µM	−5%	> 100 µM	41%	–
60.5 µM	C=C(Cc1nc(Cc2ccc(C(F)(F)F)c(Cl)c2)no1)C(=O)O [Example 137, 2-((3-(3-chloro-4-(trifluoromethyl)benzyl)-1,2,4-oxadiazol-5-yl)methyl)acrylic acid]	–	–	–	–	–
> 100 µM	C=C(Cc1nc(Cc2ccc(C)c(Cl)c2)no1)C(=O)O [Example 165, 2-((3-(3-chloro-4-methylbenzyl)-1,2,4-oxadiazol-5-yl)methyl)acrylic acid]	> 100 µM	16%	> 100 µM	25%	–
42.6 µM	C=C(Cc1nc(C2CCc3c(Cl)cc(Cl)cc32)no1)C(=O)O (centres unmarked) [Example 148, 2-((3-(4,6-dichloro-2,3-dihydro-1H-inden-1-yl)-1,2,4-oxadiazol-5-yl)methyl)acrylic acid]	–	–	–	–	–
> 31.6 µM	C=C(Cc1noc(Cc2ccc(CCCC)cc2)n1)C(=O)O [Example 95, 2-((5-(4-butylbenzyl)-1,2,4-oxadiazol-3-yl)methyl)acrylic acid]	3.9 µM	183%	2.8 µM	217%	–
> 100 µM	C=C(Cc1nc(Cc2cc(F)c(Cl)c(F)c2)no1)C(=O)O [Example 164, 2-((3-(4-chloro-3,5-difluorobenzyl)-1,2,4-oxadiazol-5-yl)methyl)acrylic acid]	63.4 µM	5.5%	42.7 µM	62%	–
41.1 µM	C=C(Cc1nc(Cc2ccc(Br)c(Cl)c2)no1)C(=O)O [Example 139, 2-((3-(4-bromo-3-chlorobenzyl)-1,2,4-oxadiazol-5-yl)methyl)acrylic acid]	–	–	–	–	–
–	COC(=O)/C=C/C(=O)OC [dimethyl fumarate, reference compound]	> 100 µM	20%	6.1 µM	100%	–
75.5 µM	C=C(Cc1nc(C2(c3ccc(S(=O)(=O)C(F)(F)F)cc3)CC2)no1)C(=O)O [Example 122, 2-((3-(1-(4-((trifluoromethyl)sulfonyl)phenyl)cyclopropyl)-1,2,4-oxadiazol-5-yl)methyl)acrylic acid]	–	–	–	–	–
55.2 µM	C=C(Cc1nc(C2(c3ccc(OC4CC4)cc3)CC2)no1)C(=O)O [Example 114]	–	–	–	–	–
50 µM	C=C(Cc1nc(-c2ccc(OCCC)cc2)no1)C(=O)O [Example 149, 2-((3-(4-propoxyphenyl)-1,2,4-oxadiazol-5-yl)methyl)acrylic acid]	–	–	–	–	–
36.4 µM	C=C(Cc1nc(C(F)c2ccc(Cl)cc2)no1)C(=O)O (centres unmarked) [Example 152, 2-((3-((4-chlorophenyl)fluoromethyl)-1,2,4-oxadiazol-5-yl)methyl)acrylic acid]	–	–	–	–	–
52.3 µM	C=C(Cc1noc(C2(c3ccc(OC(F)(F)F)cc3)CC2)n1)C(=O)O [Example 99, 2-((5-(1-(4-(trifluoromethoxy)phenyl)cyclopropyl)-1,2,4-oxadiazol-3-yl)methyl)acrylic acid]	–	–	–	–	–

Compound	IC50 [2]	EC50 [1, 3]	NRF2 activation +GSH Emax ([1]; +GSH)	EC50 [1, 4]	NRF2 activation −GSH Emax ([1]; −GSH)	IL-1β lowering, result in words [2]
C=C(Cc1nc(C2CCCCCC2)no1)C(=O)O [Example 65, 2-((3-cycloheptyl-1,2,4-oxadiazol-5-yl)methyl)acrylic acid]	> 100 µM	> 100 µM	17%	> 100 µM	50%	not effective
C=C(Cc1nc(-c2ccc(OCCCC)c(Cl)c2)no1)C(=O)O [Example 160, 2-((3-(4-butoxy-3-chlorophenyl)-1,2,4-oxadiazol-5-yl)methyl)acrylic acid]	> 10 µM	4.1 µM	238%	5 µM	216%	–
C=C(Cc1nc(C2(c3ccccc3Cl)CC2)no1)C(=O)O [Example 24, 2-((3-(1-(2-chlorophenyl)cyclopropyl)-1,2,4-oxadiazol-5-yl)methyl)acrylic acid]	> 100 µM	> 100 µM	17%	42.4 µM	57%	not effective
C=C(Cc1nc(-c2ccc(OC3CCC3)cc2)no1)C(=O)O [Example 142, 2-((3-(4-cyclobutoxyphenyl)-1,2,4-oxadiazol-5-yl)methyl)acrylic acid]	> 100 µM	26.9 µM	168%	23.3 µM	189%	–
C=C(Cc1ncn(CCCCCCCC)n1)C(=O)O [Example 13, 2-((1-octyl-1H-1,2,4-triazol-3-yl)methyl)acrylic acid]	> 100 µM	48.6 µM	51%	43.1 µM	54%	not effective
C=C(Cc1nc(-c2ccc(S(F)(F)(F)(F)F)cc2)no1)C(=O)O [Example 121, 2-((3-(4-(pentafluoro-λ^6-sulfaneyl)phenyl)-1,2,4-oxadiazol-5-yl)methyl)acrylic acid]	61.8 µM	–	–	–	–	–
C=C(Cc1nc(-c2ccc(Br)cc2)no1)C(=O)O [Example 118, 2-((3-(4-bromophenyl)-1,2,4-oxadiazol-5-yl)methyl)acrylic acid]	59.6 µM	–	–	–	–	–
C=C(Cc1nc(C2CCCCC2)no1)C(=O)O [Example 64, 2-((3-cyclohexyl-1,2,4-oxadiazol-5-yl)methyl)acrylic acid]	> 100 µM	> 100 µM	17%	> 100 µM	86%	not effective
C=C(Cc1nc(-c2ccc(OCCCC)c(C(F)(F)F)c2)no1)C(=O)O [Example 161, 2-((3-(4-butoxy-3-(trifluoromethyl)phenyl)-1,2,4-oxadiazol-5-yl)methyl)acrylic acid]	> 10 µM	7.2 µM	114%	25.1 µM	258%	–
C=C(Cc1nc(Oc2ccc(CCCC)cc2)no1)C(=O)O [Example 126, 2-((3-(4-butylphenoxy)-1,2,4-oxadiazol-5-yl)methyl)acrylic acid]	32.1 µM	–	–	–	–	–
C=C(Cc1nc(-c2ccc(I)cc2)no1)C(=O)O [Example 119, 2-((3-(4-iodophenyl)-1,2,4-oxadiazol-5-yl)methyl)acrylic acid]	59.6 µM	–	–	–	–	–
C=C(Cc1nc(C(F)(F)c2ccc(OC)c(Cl)c2)no1)C(=O)O [Example 150, 2-((3-((3-chloro-4-methoxyphenyl)difluoromethyl)-1,2,4-oxadiazol-5-yl)methyl)acrylic acid]	52.7 µM	–	–	–	–	–
